Test results as given in patent publication US9181183B2, “Prostaglandin D synthase inhibitory piperidine compounds” (Taiho Pharmaceutical Co., Ltd., priority 2010, dated 2015).

These compounds were tested against human H-PGDS (Homo sapiens, UniProt O60760) (assay: Hematopoietic prostaglandin D synthase (H-PGDS) inhibiting action, [14C]PGH2 to PGD2 conversion, TLC radioassay). Conditions: compound 0.1 μM; inhibition rate relative to solvent control group; [14C] prostaglandin H2 10 μM, 25° C.
Type: biochemical
Protocol: The test was carried out according to the method of Urade, Y. et al. (J. Biol. Chem., 262, 3820-3825, (1987)). More specifically, a reaction mixture (49 μL) containing 100 mM Tris-HCl (pH 8.0), 1 mM reduced form glutathione, 0.1 mg/mL γ-globulin, human H-PGDS (q.s.), and a compound (0.1 μM) was preincubated at 25° C. for 5 minutes. A DMSO solution (final concentration: 1%) was added to the solvent control group. Subsequently, 1 μL of [^14C] prostaglandin H2 (final concentration: 10 μM) was added to start the reaction. One minute after the start of the reaction, 250 μL of a reaction stopper solution (diethylether/methanol/1M citric acid (30/4/1)) cooled with ice was added to stop the reaction. After the reaction was stopped, 50 μL of the upper layer portion (organic solvent phase) was applied to a TLC plate and developed at −20° C. for 45 minutes (developing solvent: diethylether/methanol/acetic acid (90/2/1)). After the TLC plate was dried and exposed to an imaging plate for 1 to 24 hours, the radioactivity corresponding to prostaglandin D2 (PGD2) was analyzed using an image analyzer (produced by Fujifilm Corporation). The area (%) occupied by the PGD2 band per lane and the inhibition rate (%) of each Example compound at 0.1 μM relative to the control group in each experiment were calculated.

Chain of human H-PGDS (O60760 whole entry): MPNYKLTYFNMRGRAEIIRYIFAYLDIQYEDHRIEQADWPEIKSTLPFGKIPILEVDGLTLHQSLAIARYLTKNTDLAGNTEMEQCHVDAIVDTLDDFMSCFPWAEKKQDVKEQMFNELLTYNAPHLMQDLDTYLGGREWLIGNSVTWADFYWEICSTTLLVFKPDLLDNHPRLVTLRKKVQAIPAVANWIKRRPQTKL

Compound | H-PGDS inh. (% at 0.1 μM) [%]
Phenyl 4-(4-(2,5-difluorobenzylidene)piperidine-1-carboxamido) piperidine-1-carboxylate [Example 39] | 62.9
N-(6-(1H-1,2,3-triazol-1-ylmethyl)acetamide)benzo[d]thiazol-2-yl)-4-(pyridin-2-ylmethylene)-piperidine-1-carboxamide [Example 12] | 52.5

Same assay, conditions: compound 0.1 μM; inhibition rate relative to solvent control group; [14C] prostaglandin H2 10 μM, 25° C.; read-out: H-PGDS inh. (% at 0.1 μM)

Compound | inhibition at 0.1 µM [%]
COc1ccc(CN2CCC(NC(=O)N3CCC(=Cc4cc(F)ccc4F)CC3)CC2)cc1Cl [Example 36, N-(1-(3-chloro-4-methoxybenzyl)piperidin-4-yl)-4-(2,5-difluorobenzylidene)piperidine-1-carboxamide] | 58.3
O=C(NC1CCN(CC(F)(F)F)CC1)N1CCC(=Cc2cc(F)ccc2F)CC1 [Example 35, 4-(2,5-difluorobenzylidene)-N-(1-(2,2,2-trifluoroethyl)piperidin-4-yl)piperidine-1-carboxamide] | 77.2
O=C(NC1CCN(C(=O)C2CCC2)CC1)N1CCC(=Cc2cc(F)ccc2F)CC1 [Example 50, N-(1-(cyclobutanecarbonyl)piperidin-4-yl)-4-(2,5-difluorobenzylidene)piperidine-1-carboxamide] | 59.9
O=C(Nc1ncc(CN2CCOCC2)s1)N1CCC(=Cc2cc(F)ccc2F)CC1 [Example 84, 4-(2,5-difluorobenzylidene)-N-(5-(morpholinomethyl)thiazol-2-yl)piperidine-1-carboxamide] | 78.5
O=C(O)c1ccc(-c2ccc(NC(=O)N3CCC(=Cc4ccccn4)CC3)cn2)cc1 [Example 28, 4-(5-(4-(pyridin-2-ylmethylene)piperidine-1-carboxamido)pyridin-2-yl)benzoic acid] | 53.2
Cc1cccnc1C(=O)N1CCC(NC(=O)N2CCC(=Cc3cc(F)ccc3F)CC2)CC1 [Example 62, 4-(2,5-difluorobenzylidene)-N-(1-(3-methylpicolinoyl)piperidin-4-yl)piperidine-1-carboxamide] | 54.2
O=C(Nc1ccc(Nc2ccccc2)cc1)N1CCC(=Cc2cc(F)ccc2F)CC1 [Example 72, 4-(2,5-difluorobenzylidene)-N-(4-(phenylamino)phenyl)piperidine-1-carboxamide] | 68.7
O=C(NC1CCN(C(=O)C2CC2)CC1)N1CCC(=Cc2cc(F)ccc2F)CC1 [Example 45, N-(1-(cyclopropanecarbonyl)piperidin-4-yl)-4-(2,5-difluorobenzylidene)piperidine-1-carboxamide] | 48.8
O=C(NC1CCN(C(=O)C(F)(F)F)CC1)N1CCC(=Cc2cc(F)ccc2F)CC1 [Example 38, 4-(2,5-difluorobenzylidene)-N-(1-(2,2,2-trifluoroacetyl)piperidin-4-yl)piperidine-1-carboxamide] | 82.9
CC(F)(F)C(=O)N1CCC(NC(=O)N2CCC(=Cc3cc(F)ccc3F)CC2)CC1 [Example 40, 4-(2,5-difluorobenzylidene)-N-(1-(2,2-difluoropropanoyl)piperidin-4-yl)piperidine-1-carboxamide] | 71.4
COC(=O)c1ccc(N2CCC(NC(=O)N3CCC(=Cc4cc(F)ccc4F)CC3)CC2)cc1 [Example 41, Methyl 4-(4-(4-(2,5-difluorobenzylidene)piperidine-1-carboxamido)piperidin-1-yl)benzoate] | 59
O=C(NS(=O)(=O)c1ccccc1)c1ccc(-c2cnc(NC(=O)N3CCC(=Cc4ccccn4)CC3)s2)cc1 [Example 24, N-(5-(4-(phenylsulfonylcarbamoyl)phenyl)thiazol-2-yl)-4-(pyridin-2-ylmethylene)piperidine-1-carboxamide] | 68.2
O=C(Nc1nc2ccc(-c3cccnc3)cc2s1)N1CCC(=Cc2ccccn2)CC1 [Example 3, N-(6-(pyridin-3-yl)-benzo[d]thiazol-2-yl)-4-(pyridin-2-ylmethylene)-piperidine-1-carboxamide] | 85.7
O=C(Nc1ncc(C(=O)N2CCOCC2)s1)N1CCC(=Cc2cc(F)ccc2F)CC1 [Example 58, 4-(2,5-difluorobenzylidene)-N-(5-(morpholine-4-carbonyl)thiazol-2-yl)piperidine-1-carboxamide] | 80.8
O=C(NC1CCN(C(=O)c2ccccc2)CC1)N1CCC(=Cc2cc(F)ccc2F)CC1 [Example 47, N-(1-benzoylpiperidin-4-yl)-4-(2,5-difluorobenzylidene)piperidine-1-carboxamide] | 62
CC(C)(C)C(=O)N1CCC(NC(=O)N2CCC(=Cc3cc(F)ccc3F)CC2)CC1 [Example 46, 4-(2,5-difluorobenzylidene)-N-(1-pivaloylpiperidin-4-yl)piperidine-1-carboxamide] | 77.3
Cc1nccn1Cc1cnc(NC(=O)N2CCC(=Cc3cc(F)ccc3F)CC2)s1 [Example 82, 4-(2,5-difluorobenzylidene)-N-(5-((2-methyl-1H-imidazol-1-yl)methyl)thiazol-2-yl)piperidine-1-carboxamide] | 82.7
O=C(Nc1ccc(OCc2ccccc2)cc1)N1CCC(=Cc2cc(F)ccc2F)CC1 [Example 69, N-(4-(benzyloxy)phenyl)-4-(2,5-difluorobenzylidene)piperidine-1-carboxamide] | 51.3
O=C(NC1CCN(C(=O)C(F)F)CC1)N1CCC(=Cc2cc(F)ccc2F)CC1 [Example 43, N-(1-(2,2-difluoroacetyl)piperidin-4-yl)-4-(2,5-difluorobenzylidene)piperidine-1-carboxamide] | 68
O=C(Nc1ccc(NC(=O)N2CCC(=Cc3cc(F)ccc3F)CC2)cc1)c1ccccn1 [Example 74, N-(4-(4-(2,5-difluorobenzylidene)piperidine-1-carboxamido)phenyl)picolinamide] | 70.9
O=C(Nc1nccs1)N1CCC(NC(=O)N2CCC(=Cc3cc(F)ccc3F)CC2)CC1 [Example 65, 4-(2,5-difluorobenzylidene)-N-(1-(thiazol-2-ylcarbamoyl)piperidin-4-yl)piperidine-1-carboxamide] | 55.4
CS(=O)(=O)NC(=O)c1ccc(-c2ccc(NC(=O)N3CCC(=Cc4ccccn4)CC3)cn2)cc1 [Example 32, N-(6-(4-(methylsulfonylcarbamoyl)phenyl)pyridin-3-yl)-4-(pyridin-2-ylmethylene)piperidine-1-carboxamide] | 76.1
Cn1cccc1C(=O)N1CCC(NC(=O)N2CCC(=Cc3cc(F)ccc3F)CC2)CC1 [Example 55, 4-(2,5-difluorobenzylidene)-N-(1-(1-methyl-1H-pyrrole-2-carbonyl)piperidin-4-yl)piperidine-1-carboxamide] | 70.9
O=C(NC1CCN(C(=O)c2cccs2)CC1)N1CCC(=Cc2cc(F)ccc2F)CC1 [Example 54, 4-(2,5-difluorobenzylidene)-N-(1-(thiophene-2-carbonyl)piperidin-4-yl)piperidine-1-carboxamide] | 85.9
O=C(NC1CCN(CC(F)F)CC1)N1CCC(=Cc2cc(F)ccc2F)CC1 [Example 44, 4-(2,5-difluorobenzylidene)-N-(1-(2,2-difluoroethyl)piperidin-4-yl)piperidine-1-carboxamide] | 81
